Assay results from patent publication US7388096B2, “Crystalline forms of a factor Xa inhibitor” (Bristol-Myers Squibb Company, priority 2004, dated 2008).
Entries after “also recorded” stand apart in the source; their conditions may differ.

How the values were obtained:
Type in all cases: physicochemical
[1] = form conversion in slurry / relative thermodynamic stability of polymorphs
Procedure: (§1) SSNMR and XRPD indexing studies have proven that Form N-3 is a single phase. No significant weight loss was observed up to about 250° C. in TGA analysis. […] Form N-3 has the tendency to form small primary particles (<10 μm) of the shape of needles or rods.
(§2) P-1 is a desolvated phase obtained by drying the initial material (potential solvates) crystallized from the reaction mixture. P-1 has never been observed in slurry, and therefore there is no evidence to support assignment of P-1 as a single and neat phase that is crystallized directly from the reaction mixture. […] P-1 can also convert to Form N-2 upon heating at 230° C. in solid state.
A Good Laboratory Practice batch (˜550 g) of Form N-3 has been manufactured successfully by converting P-1 material using a slurry method in acetone at about 50° C. Acetone slurries of Form P-1 spiked at about 50° C. with 1% water still yield Form N-3, but the slurries spiked with 5% and 10% water result in P-3 (solvated) material. […] The hemi sec BuOH solvate, form 0.5SBU-4, converts to form N-2 upon heating. […] Form N-1 also undergoes a solid state transition to Form N-2 upon heating at about 90 to 130° C. In addition, P-1 converts to potential solvate/hydrate forms by slurrying in different solvent systems, e.g., MeOH/EtOAc, DMF/H2O, DMSO/H2O, NMP/H2O at room temperature or at about 50° C.

[2] = accelerated stability studies (physical stability, XRPD of stressed samples); details: for physical stability in accelerated stability studies: 40° C./75% RH/Open/4 Weeks and 50° C./Closed/4 Weeks
Procedure: as §1
Form N-1 undergoes a solid-state transition at about 90° C. as evidenced by hot-stage microscopy studies and converts to Form N-2 at about 90° C. which is confirmed by […] studies. Thermal analysis by DSC (FIG. 8) and TGA show a small exotherm at about 113° C., which is attributed to the solid-state transition to Form N-2, followed by a melting endotherm at about 255 to about 259° C. similar to the melting range for Form N-2.
as §2

[3] = moisture sorption and desorption study; details: for hygroscopicity (in words): moisture sorption and desorption study
Procedure: as §1, §2

## NC(=O)c1nn(-c2cccc(Cl)c2)c2c1CCN(c1ccc(-n3ccccc3=O)cc1)C2=O [Form N-1, 1-(3-chlorophenyl)-7-oxo-6-[4-(2-oxo-1(2H)pyridinyl)phenyl]-4,5,6,7-tetrahydro-1H-pyrazolo[3,4-c]pyridine-3-carboxamide]
[1]; slurry in acetone
  form conversion in slurry: converts to N-3 readily
[2]
  physical stability in accelerated stability studies: physically unstable

## NC(=O)c1nn(-c2cccc(Cl)c2)c2c1CCN(c1ccc(-n3ccccc3=O)cc1)C2=O [Form N-2, 1-(3-chlorophenyl)-7-oxo-6-[4-(2-oxo-1(2H)pyridinyl)phenyl]-4,5,6,7-tetrahydro-1H-pyrazolo[3,4-c]pyridine-3-carboxamide]
[1]; 25° C. to 60° C.
  relative thermodynamic stability of polymorphs: thermodynamically less stable than polymorph N-3
[1]; slurry at 25 and 60° C.
  form conversion in slurry: converts to N-3
[1]; slurry in acetone at RT or about 50° C.
  form conversion in slurry: converts to Form N-3 readily
[2]; 40° C./75% RH/Open for 5 Weeks and 50° C./Closed for 4 Weeks
  physical stability in stability study: physically stable
[3]; at 90% RH at 25° C.
  moisture adsorption: ~1.2%
[3]
  hygroscopicity (in words): nonhygroscopic

## NC(=O)c1nn(-c2cccc(Cl)c2)c2c1CCN(c1ccc(-n3ccccc3=O)cc1)C2=O [Form N-3, 1-(3-chlorophenyl)-7-oxo-6-[4-(2-oxo-1(2H)pyridinyl)phenyl]-4,5,6,7-tetrahydro-1H-pyrazolo[3,4-c]pyridine-3-carboxamide]
[1]; 25° C. to 60° C.
  relative thermodynamic stability of polymorphs: thermodynamically more stable than polymorphs N-1 and N-2
[1]; room temperature to 60° C., from slurry conversions
  relative thermodynamic stability of polymorphs: thermodynamically more stable polymorph
[2]
  physical stability in accelerated stability studies: physically stable
[3]
  hygroscopicity (in words): nonhygroscopic; also recorded: non-hygroscopic
[3]; up to 95% RH at 25° C.
  hysteresis in moisture sorption/desorption: no hysteresis was observed
  moisture sorption: 0.4%

## NC(=O)c1nn(-c2cccc(Cl)c2)c2c1CCN(c1ccc(-n3ccccc3=O)cc1)C2=O [Form P-1, 1-(3-chlorophenyl)-7-oxo-6-[4-(2-oxo-1(2H)pyridinyl)phenyl]-4,5,6,7-tetrahydro-1H-pyrazolo[3,4-c]pyridine-3-carboxamide]
[1]; in solvents (e.g., acetone)
  form conversion in solvents: converts to Form N-3
[1]; slurry in different solvents (e.g., acetone, ACN, DMSO/MTBE) at about 50° C.
  form conversion in slurry: converts to Form N-3
[2]; stressed for 3 weeks, 40° C./75% RH/Open
  physical stability in accelerated stability studies (XRPD assay): physically unstable
[3]
  hygroscopicity (in words): hygroscopic
[3]; to 90% RH
  weight gain on adsorption: ~16%
